Data published in patent US12065404B2, “C4-carboxylic acid-substituted tryptamine derivatives and methods of using” (priority 2022, dated 2024).
Where “and” joins values, the source holds several entries; their conditions need not be identical. Equal values may be shown once. Entries after “also recorded” stand apart in the source; their conditions may differ. Read-outs that look alike come from different tables or passages of the source. Marks after values point to notes of the source that are not given here.

What was measured:
5-HT1A receptor = target: T1, 5-HT1A receptor (Homo sapiens, UniProt P08908); assay: cAMP-Glo assay of 5-HT1A receptor modulation, +5-HT1A (CHO-K1/5-HT1A/Ga15) vs -5-HT1A (CHO-K1/Ga15) cells; assay type: cell-based; set-up: dose or concentration left out as unconfirmed; details: +5-HT1A vs -5-HT1A cell cultures stimulated with forskolin, increasing ligand concentrations
T1 construct: host or cells: CHO-K1 (co-expressing Ga15)
T1 sequence (P08908 1-422): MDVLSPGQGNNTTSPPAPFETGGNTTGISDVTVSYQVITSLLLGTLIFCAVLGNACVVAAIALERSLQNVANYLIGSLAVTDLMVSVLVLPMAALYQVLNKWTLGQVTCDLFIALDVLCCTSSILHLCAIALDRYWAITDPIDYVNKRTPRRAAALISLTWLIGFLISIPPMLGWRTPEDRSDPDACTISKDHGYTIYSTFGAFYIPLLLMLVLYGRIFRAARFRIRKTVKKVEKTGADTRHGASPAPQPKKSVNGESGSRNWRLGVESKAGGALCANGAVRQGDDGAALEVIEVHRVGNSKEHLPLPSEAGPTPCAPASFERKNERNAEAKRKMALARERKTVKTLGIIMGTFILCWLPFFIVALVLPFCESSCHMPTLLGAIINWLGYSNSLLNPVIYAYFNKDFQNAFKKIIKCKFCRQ

[1] = target: T2, neuronal 5-HT2A receptor (5-HT2AR) (Mus musculus, UniProt P35363); assay: Drug-induced Head Twitch Response (HTR) in mice; assay type: in vivo, C57BL/6-Elite mice; details: 1 mg/kg i.p., 15-to-30-minute window post-drug, relative to vehicle-treated control mice
T2 construct: HTR was measured in mice treated with a control and test compounds; tissue Charles River; host or cells: live C57BL/6-Elite mice (neuronal receptor)

[2] = Mouse pharmacokinetic (PK) study, parent compound and psilocin metabolite in plasma; assay type: in vivo, C57Bl/6 mice; details: for Detectability of administered compound in plasma, any animals at any dose: i.v. and oral doses
Description: (§1) Briefly, the procedure was as follows. […] 19, 2022.

GABAA = GABAA (Homo sapiens, UniProt P14867+P18507+P47870); assay type: cell-based; details: ion channel
[3] = LC-MS measurement of dosing solution concentrations (nominal vs measured); assay type: physicochemical
Procedure: as §1
Pharmacokinetic (PK) evaluations were performed in the same manner as described in Example 1, except compound C(IV) was used in place of compound C(V). […] Thus, only psilocin PK analysis was performed. […] Table 46 summarizes these “measured” concentrations along with corresponding “nominal” concentrations for each dosing solution. Results for psilocin PK following C(IV) administration are found in Tables 47A-47B (0.293 mg/kg IV dose), Tables 48A-48B (0.275 mg/kg oral dose), Tables 49A-49B (0.789 mg/kg oral dose), Tables 50A-50B (2.52 mg/kg oral dose), Table 51 (comparative summary for IV data), Table 52 (comparative summary for oral data), Table 53A (psilocin exposure) and FIGS. 10H (i) and 10H (ii).

5-HT2A receptor = 5-HT2A receptor (Homo sapiens, UniProt P28223); assay: [3H]ketanserin competition binding assay (SPA) at 5-HT2A; details: 1 nM [3H]ketanserin, FIGS. 3E, 3F
[4] = mouse, prodrug 1 mg/kg i.v., 8 h, individual animals
[5] = mouse, prodrug 1 mg/kg oral, 8 h, individual animals
[6] = mouse, prodrug 1 mg/kg oral, 24 h, individual animals
[7] = mouse, prodrug 3 mg/kg oral, 24 h, individual animals
[8] = mouse, prodrug 10 mg/kg oral, 24 h, individual animals

T2 sequence (P35363 whole entry): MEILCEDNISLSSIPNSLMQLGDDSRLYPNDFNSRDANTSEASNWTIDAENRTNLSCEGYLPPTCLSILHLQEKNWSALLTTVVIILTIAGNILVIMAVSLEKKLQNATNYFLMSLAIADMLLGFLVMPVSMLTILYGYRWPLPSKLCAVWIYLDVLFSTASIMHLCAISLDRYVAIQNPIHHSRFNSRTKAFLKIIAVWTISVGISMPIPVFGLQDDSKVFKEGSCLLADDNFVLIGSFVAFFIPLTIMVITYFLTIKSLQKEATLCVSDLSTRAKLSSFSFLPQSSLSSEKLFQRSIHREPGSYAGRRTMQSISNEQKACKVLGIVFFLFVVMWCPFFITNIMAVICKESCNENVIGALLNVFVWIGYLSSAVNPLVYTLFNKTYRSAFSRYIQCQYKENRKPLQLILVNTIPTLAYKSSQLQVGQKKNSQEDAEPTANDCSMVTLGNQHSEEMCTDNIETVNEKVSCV
Chain of GABAA (P14867 28-456): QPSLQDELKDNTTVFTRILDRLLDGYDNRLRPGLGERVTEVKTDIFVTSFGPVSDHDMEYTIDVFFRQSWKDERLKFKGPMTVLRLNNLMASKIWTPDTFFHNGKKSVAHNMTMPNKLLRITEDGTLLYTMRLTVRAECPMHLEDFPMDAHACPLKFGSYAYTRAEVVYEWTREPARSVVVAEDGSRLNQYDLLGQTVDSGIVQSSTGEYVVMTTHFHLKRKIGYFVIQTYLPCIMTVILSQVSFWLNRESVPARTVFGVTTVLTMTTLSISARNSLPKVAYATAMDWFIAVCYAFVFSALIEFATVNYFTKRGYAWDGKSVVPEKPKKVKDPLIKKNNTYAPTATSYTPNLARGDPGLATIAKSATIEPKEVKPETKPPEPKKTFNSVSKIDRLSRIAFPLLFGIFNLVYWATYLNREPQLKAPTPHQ
Chain of GABAA (P47870 26-512): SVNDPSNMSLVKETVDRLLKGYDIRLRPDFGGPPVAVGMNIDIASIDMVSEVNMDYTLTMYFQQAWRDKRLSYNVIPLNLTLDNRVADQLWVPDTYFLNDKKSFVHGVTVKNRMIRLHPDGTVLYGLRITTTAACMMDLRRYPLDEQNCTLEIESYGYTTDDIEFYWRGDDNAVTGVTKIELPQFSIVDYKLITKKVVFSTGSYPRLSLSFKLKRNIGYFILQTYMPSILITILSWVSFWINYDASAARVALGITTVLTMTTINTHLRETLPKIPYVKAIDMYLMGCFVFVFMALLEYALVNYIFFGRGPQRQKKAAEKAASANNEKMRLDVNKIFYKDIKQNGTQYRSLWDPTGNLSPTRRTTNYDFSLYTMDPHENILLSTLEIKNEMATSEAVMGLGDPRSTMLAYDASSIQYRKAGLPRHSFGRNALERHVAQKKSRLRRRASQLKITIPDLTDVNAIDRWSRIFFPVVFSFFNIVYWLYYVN
Chain of GABAA (P18507 40-475): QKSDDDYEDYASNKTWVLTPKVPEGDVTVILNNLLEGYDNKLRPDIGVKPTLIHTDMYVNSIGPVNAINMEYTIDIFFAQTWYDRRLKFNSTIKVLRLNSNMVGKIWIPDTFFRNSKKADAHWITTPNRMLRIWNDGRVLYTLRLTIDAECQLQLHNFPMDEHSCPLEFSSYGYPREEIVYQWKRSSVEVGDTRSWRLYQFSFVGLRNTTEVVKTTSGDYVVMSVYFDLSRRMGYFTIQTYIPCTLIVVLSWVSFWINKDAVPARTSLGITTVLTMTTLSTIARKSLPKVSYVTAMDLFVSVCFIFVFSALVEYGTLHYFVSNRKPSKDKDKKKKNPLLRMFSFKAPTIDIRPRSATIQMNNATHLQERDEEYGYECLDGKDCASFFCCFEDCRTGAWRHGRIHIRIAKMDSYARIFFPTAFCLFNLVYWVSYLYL
Chain of 5-HT2A receptor (P28223 whole entry): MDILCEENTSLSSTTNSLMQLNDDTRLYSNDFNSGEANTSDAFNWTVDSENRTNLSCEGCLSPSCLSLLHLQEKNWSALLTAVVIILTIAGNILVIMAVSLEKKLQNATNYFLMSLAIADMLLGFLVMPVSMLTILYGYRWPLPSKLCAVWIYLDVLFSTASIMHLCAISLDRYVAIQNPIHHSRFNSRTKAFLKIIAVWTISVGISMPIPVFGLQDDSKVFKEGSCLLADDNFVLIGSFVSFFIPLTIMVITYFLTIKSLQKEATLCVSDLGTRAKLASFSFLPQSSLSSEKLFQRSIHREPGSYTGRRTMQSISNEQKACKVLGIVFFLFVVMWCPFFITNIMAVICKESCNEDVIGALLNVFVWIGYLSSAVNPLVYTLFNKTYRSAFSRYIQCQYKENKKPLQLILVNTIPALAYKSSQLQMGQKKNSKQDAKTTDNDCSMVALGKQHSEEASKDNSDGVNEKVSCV

Structure (SMILES): COC(=O)c1cccc(C(=O)Oc2cccc3[nH]cc(CCN(C)C)c23)c1 [C(XLIII)]
- 5-HT1A receptor modulation (reduction of cAMP levels) (5-HT1A receptor): receptor modulation at higher ligand concentrations

Structure (SMILES): CN(C)CCc1c[nH]c2cccc(OC(=O)c3c(F)c(F)c(F)c(F)c3F)c12 [C(VI)]
- 5-HT1A receptor modulation (reduction of cAMP levels) (5-HT1A receptor): no receptor modulation at higher ligand concentrations
- Incidences of Head Twitch Response (HTR) [1]: Elevated incidences of HTR
- Detectability of administered compound in plasma, any animals at any dose ([2]; mouse): not detectable in any animals at any dose
- Plasma concentration of psilocin [2, 4]: BLQ (BLQ denotes below the lower limit of quantitation (0.2 ng/ml).)
- Plasma concentration of psilocin [2, 5]: BLQ (BLQ denotes below the lower limit of quantitation (0.2 ng/ml).)
- Plasma concentration of psilocin [2, 6]: BLQ (BLQ denotes below the lower limit of quantitation (0.2 ng/ml).); also recorded: No Peak
- Plasma concentration of psilocin [2, 7]: BLQ (BLQ denotes below the lower limit of quantitation (0.2 ng/ml).); also recorded: No Peak
- Plasma concentration of psilocin [2, 8]: BLQ (BLQ denotes below the lower limit of quantitation (0.2 ng/ml).)
- IC50 (GABAA; blocker (BL)): > 100 µM
- EC50 (GABAA; opener (OP)): > 100 µM

Structure (SMILES): NCCc1c[nH]c2ccc(O)cc12 [serotonin, reference compound]
- 5-HT1A receptor modulation (reduction of cAMP levels) (5-HT1A receptor): reduction in cAMP levels

Structure (SMILES): COCCOCCOCC(=O)Oc1cccc2[nH]cc(CCN(C)C)c12 [C(III)]
- 5-HT1A receptor modulation (reduction of cAMP levels) (5-HT1A receptor): significant receptor modulation
- Incidences of Head Twitch Response (HTR) [1]: Elevated incidences of HTR

Structure (SMILES): CN(C)CCc1c[nH]c2cccc(OC(=O)c3cccc(C(=O)Oc4cccc5[nH]cc(CCN(C)C)c45)c3)c12 [C(VII)]
- 5-HT1A receptor modulation (reduction of cAMP levels) (5-HT1A receptor): no significant receptor modulation
- Incidences of Head Twitch Response (HTR) [1]: Elevated incidences of HTR

Structure (SMILES): COc1ccc(C(=O)Oc2cccc3[nH]cc(CCN(C)C)c23)cc1 [C(V)]
- 5-HT1A receptor modulation (reduction of cAMP levels) (5-HT1A receptor): mild receptor modulation at higher ligand concentrations
- Incidences of Head Twitch Response (HTR) [1]: Elevated incidences of HTR
- Detectability of administered compound in plasma, i.v. administered animals ([2]; mouse, 1 mg/kg i.v.): only detectable in i.v. administered animals
- Detectability of administered compound in plasma, orally administered animals ([2]; mouse, oral, any dose (1, 3, 10 mg/kg)): not detectable in orally administered animals at any dose
- Plasma concentration of administered (parent) compound ([2]; mouse, 1 mg/kg i.v., 5 min, individual animals, 1 mg/kg): 6.53 ng/mL and 53.8 ng/mL and 13.5 ng/mL
- Plasma concentration of administered (parent) compound ([2]; mouse, 1 mg/kg i.v., 5 min, mean ± SD): 24.6 ± 25.5 ng/mL
- Plasma concentration of administered (parent) compound ([2]; mouse, 1 mg/kg i.v., 0.25 h, individual animals, 1 mg/kg): BLQ (BLQ denotes below the lower limit of quantitation (0.5 ng/mL).)
- Plasma concentration of administered (parent) compound ([2]; mouse, 1 mg/kg i.v., 0.25 h, mean ± SD): 0.834 (n = 1) ng/mL
- Plasma concentration of administered (parent) compound ([2]; mouse, 1 mg/kg i.v., 0.5 h, individual animals, 1 mg/kg): BLQ (BLQ denotes below the lower limit of quantitation (0.5 ng/mL).); also recorded: No Peak
- Plasma concentration of administered (parent) compound ([2]; mouse, 1 mg/kg i.v., 1 h, individual animals): No Peak
- Plasma concentration of administered (parent) compound ([2]; mouse, 1 mg/kg i.v., 2 h, individual animals): No Peak
- Plasma concentration of administered (parent) compound ([2]; mouse, 1 mg/kg i.v., 4 h, individual animals): No Peak
- Plasma concentration of administered (parent) compound ([2]; mouse, 1 mg/kg i.v., 6 h, individual animals): No Peak
- Plasma concentration of administered (parent) compound ([2]; mouse, 1 mg/kg i.v., 8 h, individual animals): No Peak
- Cmax of administered (parent) compound ([2]; mouse, 1 mg/kg i.v., individual animals, 1 mg/kg): 6.53 ng/mL and 53.8 ng/mL and 13.5 ng/mL
- Cmax of administered (parent) compound ([2]; mouse, 1 mg/kg i.v., mean ± SD): 24.6 ± 25.5 ng/mL
- Plasma concentration of psilocin [2, 4]: BLQ (BLQ denotes below the lower limit of quantitation (0.2 ng/ml).)
- Plasma concentration of psilocin [2, 5]: BLQ (BLQ denotes below the lower limit of quantitation (0.2 ng/ml).)
- Plasma concentration of psilocin [2, 6]: No Peak; also recorded: BLQ (BLQ denotes below the lower limit of quantitation (0.2 ng/ml).)
- Plasma concentration of psilocin [2, 7]: No Peak; also recorded: BLQ (BLQ denotes below the lower limit of quantitation (0.2 ng/ml).)
- Plasma concentration of psilocin [2, 8]: BLQ (BLQ denotes below the lower limit of quantitation (0.2 ng/ml).); also recorded: No Peak
- Stability in plasma ([2]; plasma, LC-MS bioanalysis of the mouse PK study): unstable in plasma; also recorded: ^aA freshly spiked calibration curve was used for quantification C(V) is not stable in plasma; concentrations are not considered accurate; also recorded: ^aDue to C(V) instability in plasma, the PK parameter estimates are not considered accurate
- IC50 (GABAA; blocker (BL) mode): > 100 µM
- EC50 (GABAA; opener (OP) mode): > 100 µM

Structure (SMILES): CN(C)CCc1c[nH]c2cccc(OC(=O)CC3CC3)c12 [C(IV)]
- 5-HT1A receptor modulation (reduction of cAMP levels) (5-HT1A receptor): significant receptor modulation
- Incidences of Head Twitch Response (HTR) [1]: Elevated incidences of HTR
- Plasma concentration of psilocin ([2]; 0.275 mg/kg oral C(IV), 24 h, animals M64-M66): No Peak
- Plasma concentration of psilocin ([2]; 0.789 mg/kg oral C(IV), 24 h, animals M67-M69): No Peak
- Detectability of administered compound in plasma, any animals at any dose ([2]; mouse): not detectable in any animals at any dose
- Psilocin, measured, in C(IV) residual dosing solution ([3]; C(IV) nominal 0.1 mg/mL, not accurate, peak below LLOQ, for reference only): 0.00174^d mg/mL
- Psilocin, measured, in C(IV) residual dosing solution ([3]; C(IV) nominal 0.2 mg/mL): 0.00324 mg/mL
- Psilocin, measured, in C(IV) residual dosing solution ([3]; C(IV) nominal 0.3 mg/mL): 0.00474 mg/mL
- Psilocin, measured, in C(IV) residual dosing solution ([3]; C(IV) nominal 1 mg/mL): 0.0234 mg/mL
- Stability in dosing solutions ([3]; PK dosing solutions): compound instability in dosing solutions
- C(IV), measured, residual dosing solution concentration ([3]; nominal 0.1 mg/mL): 0.0275 mg/mL
- C(IV), measured, residual dosing solution concentration ([3]; nominal 0.2 mg/mL): 0.0586 mg/mL
- C(IV), measured, residual dosing solution concentration ([3]; nominal 0.3 mg/mL): 0.0789 mg/mL
- C(IV), measured, residual dosing solution concentration ([3]; nominal 1 mg/mL): 0.252 mg/mL
- IC50 (GABAA; blocker (BL)): > 100 µM
- EC50 (GABAA; opener (OP)): > 100 µM

Structure (SMILES): CN(C)CCc1c[nH]c2cccc(O)c12 [psilocin, reference compound]
- 5-HT1A receptor modulation (reduction of cAMP levels) (5-HT1A receptor): reduction in cAMP levels
- Competition binding vs [3H]ketanserin at 5-HT2A (control outcome) (5-HT2A receptor): binding

Structure (SMILES): N[C@@H](Cc1c[nH]c2ccccc12)C(=O)O [tryptophan, reference compound]
- 5-HT1A receptor modulation (reduction of cAMP levels) (5-HT1A receptor): no reduction in cellular cAMP levels
- Competition binding vs [3H]ketanserin at 5-HT2A (control outcome) (5-HT2A receptor): no binding
